Test results as given in patent US8968780B2, “Stabilized pharmaceutical composition” (Egis Gyogyszergyar Nyilvanosan Muekoedoe Reszvenytarsasag, priority 2010, dated 2015).
Where two headings read alike, the source gives them in different places.

Tests used:
[1] = Preformulation stability of pregabalin with physically admixed non-reducing saccharides (appearance, scent); type: physicochemical

What does the source list for `CC(C)CC(CN)CC(=O)O` (stereo not drawn) [Pregabalin, 5-methyl-3-aminomethyl-hexanoic acid]?
Scent ([1]; 40° C./75% RH/4 Weeks/open): Odourless; Scent ([1]; 50° C./4 Weeks/closed): Odourless; Scent ([1]; Initial): Odourless; % Known Impurities Lactum RRT = 3.91 (40° C./75% RH/4 Weeks/open): 0.004%; % Known Impurities Lactum RRT = 3.91 (60° C./2 Weeks/closed): 0.006%; % Known Impurities Lactum RRT = 3.91 (Initial): <0.0003%
